Measured values from ChEMBL document CHEMBL4507298 (2021).

Assays:
[1] = target: C-X-C chemokine receptor type 4 (Homo sapiens) (UniProt P61073); assay: CXCR4 (h) CEREP ligand profiling; settings: Compound concentration 10.0 uM
[2] = target: Ephrin type-B receptor 4 (Homo sapiens) (UniProt P54760); settings: Compound concentration 1000.0 nM
[3] = target: Serine/threonine-protein kinase 24 (Homo sapiens) (UniProt Q9Y6E0); settings: Compound concentration 1000.0 nM
[4] = target: MAP kinase-activated protein kinase 5 (Homo sapiens) (UniProt Q8IW41); settings: Compound concentration 1000.0 nM
MAP kinase-activated protein kinase 5 (Homo sapiens), sequence (Q8IW41 whole entry): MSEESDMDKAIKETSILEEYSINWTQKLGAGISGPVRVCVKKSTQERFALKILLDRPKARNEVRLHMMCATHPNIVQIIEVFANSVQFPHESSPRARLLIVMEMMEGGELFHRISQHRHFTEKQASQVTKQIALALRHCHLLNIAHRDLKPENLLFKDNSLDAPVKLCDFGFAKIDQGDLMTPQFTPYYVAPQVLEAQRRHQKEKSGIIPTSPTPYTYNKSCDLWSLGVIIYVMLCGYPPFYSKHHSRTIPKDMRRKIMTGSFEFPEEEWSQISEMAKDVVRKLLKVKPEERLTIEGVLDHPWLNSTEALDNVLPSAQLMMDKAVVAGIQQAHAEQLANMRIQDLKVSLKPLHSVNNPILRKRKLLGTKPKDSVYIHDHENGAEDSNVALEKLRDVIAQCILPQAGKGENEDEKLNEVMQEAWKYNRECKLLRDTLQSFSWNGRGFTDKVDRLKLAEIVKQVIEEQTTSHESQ

[5] = target: Cyclin-G-associated kinase (Homo sapiens) (UniProt O14976); settings: Compound concentration 1000.0 nM
Cyclin-G-associated kinase (Homo sapiens), sequence (O14976 whole entry): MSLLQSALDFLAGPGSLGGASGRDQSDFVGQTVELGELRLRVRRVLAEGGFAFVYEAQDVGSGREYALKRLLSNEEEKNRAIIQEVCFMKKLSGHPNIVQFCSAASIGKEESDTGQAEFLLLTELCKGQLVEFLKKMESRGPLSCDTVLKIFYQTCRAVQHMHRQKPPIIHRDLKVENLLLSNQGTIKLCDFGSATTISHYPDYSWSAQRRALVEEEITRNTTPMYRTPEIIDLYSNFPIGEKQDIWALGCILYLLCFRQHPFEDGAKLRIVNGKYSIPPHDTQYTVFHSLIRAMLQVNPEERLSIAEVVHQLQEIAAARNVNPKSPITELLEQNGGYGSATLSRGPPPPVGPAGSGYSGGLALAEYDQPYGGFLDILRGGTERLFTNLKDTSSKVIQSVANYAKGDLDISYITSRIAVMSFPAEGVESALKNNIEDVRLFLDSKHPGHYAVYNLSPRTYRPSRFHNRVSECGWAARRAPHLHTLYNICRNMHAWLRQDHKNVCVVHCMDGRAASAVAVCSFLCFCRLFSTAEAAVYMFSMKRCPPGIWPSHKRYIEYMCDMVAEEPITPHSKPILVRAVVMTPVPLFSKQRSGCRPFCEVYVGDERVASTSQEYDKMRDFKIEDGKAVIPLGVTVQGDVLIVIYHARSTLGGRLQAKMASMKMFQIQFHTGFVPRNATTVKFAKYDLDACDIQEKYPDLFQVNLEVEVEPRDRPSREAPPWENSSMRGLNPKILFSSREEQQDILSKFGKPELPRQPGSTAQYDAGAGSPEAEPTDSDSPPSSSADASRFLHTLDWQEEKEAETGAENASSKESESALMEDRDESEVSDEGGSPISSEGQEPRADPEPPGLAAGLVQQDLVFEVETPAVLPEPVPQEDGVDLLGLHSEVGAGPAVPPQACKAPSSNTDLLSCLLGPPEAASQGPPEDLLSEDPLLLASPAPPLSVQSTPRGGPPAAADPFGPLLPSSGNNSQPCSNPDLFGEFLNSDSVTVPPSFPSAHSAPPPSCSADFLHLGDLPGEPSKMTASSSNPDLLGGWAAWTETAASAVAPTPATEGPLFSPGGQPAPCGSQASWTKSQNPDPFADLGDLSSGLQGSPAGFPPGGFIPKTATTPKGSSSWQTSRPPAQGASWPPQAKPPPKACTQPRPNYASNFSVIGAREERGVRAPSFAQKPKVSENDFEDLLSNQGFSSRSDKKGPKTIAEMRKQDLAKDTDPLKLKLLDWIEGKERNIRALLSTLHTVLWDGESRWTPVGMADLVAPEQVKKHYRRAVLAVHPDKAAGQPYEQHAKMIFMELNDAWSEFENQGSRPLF

[6] = target: Activin receptor type-1-like (Homo sapiens) (UniProt P37023); settings: Compound concentration 1000.0 nM
Activin receptor type-1-like (Homo sapiens), sequence (P37023 whole entry): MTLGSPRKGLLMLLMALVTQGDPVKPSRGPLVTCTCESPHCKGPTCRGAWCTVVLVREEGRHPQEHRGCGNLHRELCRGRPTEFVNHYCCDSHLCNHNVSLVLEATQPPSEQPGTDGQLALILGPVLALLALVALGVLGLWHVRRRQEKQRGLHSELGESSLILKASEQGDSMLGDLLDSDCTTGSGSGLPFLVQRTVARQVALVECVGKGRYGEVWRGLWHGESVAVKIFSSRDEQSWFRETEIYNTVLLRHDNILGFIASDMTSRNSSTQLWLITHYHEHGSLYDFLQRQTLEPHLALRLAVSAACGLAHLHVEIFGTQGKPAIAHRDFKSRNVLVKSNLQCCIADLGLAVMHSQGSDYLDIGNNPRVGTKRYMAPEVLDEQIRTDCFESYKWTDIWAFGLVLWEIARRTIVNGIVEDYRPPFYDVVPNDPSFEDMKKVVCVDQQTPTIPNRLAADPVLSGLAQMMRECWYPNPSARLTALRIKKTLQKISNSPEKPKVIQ

[7] = target: cGMP-specific 3',5'-cyclic phosphodiesterase (Homo sapiens) (UniProt O76074); assay: PDE5 (h) CEREP ligand profiling; settings: Compound concentration 10.0 uM

Serine/threonine-protein kinase 24 (Homo sapiens), sequence (Q9Y6E0 whole entry, looked up): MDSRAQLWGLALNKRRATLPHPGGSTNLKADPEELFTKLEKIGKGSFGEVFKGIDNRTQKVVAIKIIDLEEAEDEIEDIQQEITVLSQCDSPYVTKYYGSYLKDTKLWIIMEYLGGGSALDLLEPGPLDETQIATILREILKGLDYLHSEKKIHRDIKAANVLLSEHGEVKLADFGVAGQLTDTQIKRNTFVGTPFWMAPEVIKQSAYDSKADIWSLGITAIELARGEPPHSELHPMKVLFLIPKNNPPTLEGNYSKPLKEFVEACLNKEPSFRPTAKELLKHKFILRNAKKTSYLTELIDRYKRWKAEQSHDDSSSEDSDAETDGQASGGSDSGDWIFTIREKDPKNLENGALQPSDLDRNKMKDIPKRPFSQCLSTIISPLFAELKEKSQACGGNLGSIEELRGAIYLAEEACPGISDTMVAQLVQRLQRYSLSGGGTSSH
C-X-C chemokine receptor type 4 (Homo sapiens), sequence (P61073 whole entry): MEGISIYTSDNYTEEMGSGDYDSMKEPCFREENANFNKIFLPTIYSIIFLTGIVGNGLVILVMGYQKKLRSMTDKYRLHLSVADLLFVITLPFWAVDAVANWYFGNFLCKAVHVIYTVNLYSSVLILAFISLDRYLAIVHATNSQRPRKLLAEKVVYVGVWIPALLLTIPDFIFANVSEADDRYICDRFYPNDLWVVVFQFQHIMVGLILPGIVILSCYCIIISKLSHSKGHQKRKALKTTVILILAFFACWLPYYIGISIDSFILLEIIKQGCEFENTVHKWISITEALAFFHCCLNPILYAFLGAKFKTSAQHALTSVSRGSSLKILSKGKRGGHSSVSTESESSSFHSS
Ephrin type-B receptor 4 (Homo sapiens), sequence (P54760 whole entry): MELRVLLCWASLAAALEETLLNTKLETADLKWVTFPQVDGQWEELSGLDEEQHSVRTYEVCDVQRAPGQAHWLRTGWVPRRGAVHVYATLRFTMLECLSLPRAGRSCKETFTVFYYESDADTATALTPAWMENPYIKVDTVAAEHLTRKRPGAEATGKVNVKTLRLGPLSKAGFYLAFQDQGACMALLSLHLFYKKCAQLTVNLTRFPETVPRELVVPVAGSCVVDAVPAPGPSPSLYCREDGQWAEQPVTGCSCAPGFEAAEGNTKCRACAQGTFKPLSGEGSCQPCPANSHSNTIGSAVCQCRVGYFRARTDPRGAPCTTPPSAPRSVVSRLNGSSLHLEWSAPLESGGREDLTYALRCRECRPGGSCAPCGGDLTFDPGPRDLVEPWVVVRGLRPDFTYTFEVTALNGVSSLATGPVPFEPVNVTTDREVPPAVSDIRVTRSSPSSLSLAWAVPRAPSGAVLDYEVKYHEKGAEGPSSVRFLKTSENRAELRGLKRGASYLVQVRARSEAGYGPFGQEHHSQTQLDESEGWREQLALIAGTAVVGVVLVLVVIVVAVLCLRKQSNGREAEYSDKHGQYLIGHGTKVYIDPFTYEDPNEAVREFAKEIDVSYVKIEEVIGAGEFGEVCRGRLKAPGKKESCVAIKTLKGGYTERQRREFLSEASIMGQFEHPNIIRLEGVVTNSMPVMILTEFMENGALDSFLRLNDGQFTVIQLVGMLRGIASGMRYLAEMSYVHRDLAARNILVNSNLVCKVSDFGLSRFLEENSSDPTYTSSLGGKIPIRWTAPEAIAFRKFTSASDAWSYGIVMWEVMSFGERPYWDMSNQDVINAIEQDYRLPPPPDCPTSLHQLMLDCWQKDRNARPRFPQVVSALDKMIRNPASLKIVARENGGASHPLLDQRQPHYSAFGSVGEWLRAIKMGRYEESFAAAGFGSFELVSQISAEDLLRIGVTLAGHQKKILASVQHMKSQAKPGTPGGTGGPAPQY

COc1ccc2cc(OCC3(C(=O)O)CN(C(=O)c4ccc(F)cc4)C3)ccc2c1 [PF-04418948]
inactive: inhibition [1] 4% | residual activity [2] 95% | residual activity [3] 85% | residual activity [4] 76% | residual activity [5] 88% | residual activity [6] 93% | inhibition [7] 6%
